Test results from PubChem BioAssay (NCI).
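How tested: cells in 96-well plates exposed to compound for 48 hours at five concentrations. Here, GI50 denotes the concentration required for 50% inhibition of growth. TGI: concentration producing complete growth inhibition.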

Tests used:
Assay in all cases: NCI anticancer screen, dose series, 48 h
A498 renal = test system: A498 renal
HT29 colon = test system: HT29 colon
KM12 colon = test system: KM12 colon
NCI/ADR-RES ovarian = test system: NCI/ADR-RES ovarian
OVCAR-5 ovarian = test system: OVCAR-5 ovarian
SNB-75 CNS = test system: SNB-75 CNS
UACC-257 melanoma = test system: UACC-257 melanoma
T-47D breast = test system: T-47D breast

| SMILES | GI50 (A498 renal) | TGI (A498 renal) | GI50 (HT29 colon) | TGI (HT29 colon) | GI50 (KM12 colon) | TGI (KM12 colon) | GI50 (NCI/ADR-RES ovarian) | TGI (NCI/ADR-RES ovarian) | GI50 (OVCAR-5 ovarian) | TGI (OVCAR-5 ovarian) | GI50 (SNB-75 CNS) | TGI (SNB-75 CNS) | GI50 (UACC-257 melanoma) | TGI (UACC-257 melanoma) | TGI (T-47D breast) | GI50 (T-47D breast) |
| --- | --- | --- | --- | --- | --- | --- | --- | --- | --- | --- | --- | --- | --- | --- | --- | --- |
| COc1ccc2c(c1)[n+](=O)c(C(=O)c1ccco1)c(C(F)(F)F)n2[O-] | 3.98 µM | 16 µM | 4.59 µM | > 100 µM | 4.48 µM | 32.6 µM | 2 µM | 6.57 µM | 3.51 µM | 22.3 µM | 3.83 µM | 25.6 µM | 1.44 µM | 4.83 µM |  |  |
| Cc1ccc(S(=O)(=O)N2CCSCCN(S(=O)(=O)c3ccc(C)cc3)CCN(S(=O)(=O)c3ccc(C)cc3)CC2)cc1 |  | > 100 µM |  | > 100 µM |  |  |  | > 100 µM |  | > 100 µM |  |  |  |  | > 100 µM |  |
| CN(Cc1cc(Br)cc(Br)c1O)Cc1cc(Br)cc(Br)c1O | 4.08 µM | 18.7 µM | 6.23 µM | 19.9 µM | 3.81 µM | 16.4 µM | 1.83 µM | 12.6 µM | 6.13 µM | 21.9 µM | 12.9 µM | 49.3 µM | 2.44 µM | 11.5 µM | 23.6 µM | 2.27 µM |
| COc1ccc(C(=O)c2cc(OC)c(OC)c(OC)c2)cc1/C=C/C(=O)c1ccc(OC)c(OC)c1 |  |  |  |  | 1.42 µM | > 100 µM | 0.466 µM | > 100 µM | 3.67 µM | > 100 µM | 3.86 µM | > 100 µM | 3.19 µM | > 100 µM | > 100 µM | 2.76 µM |
| C[C@H](Nc1ncnc2nc[nH]c12)c1cc2ccc(F)cc2nc1-c1ccccn1 | 1.02 µM | 10.7 µM | > 100 µM | > 100 µM | > 100 µM | > 100 µM | > 100 µM | > 100 µM | > 77.2 µM | > 100 µM | 2.68 µM | 60.5 µM | > 100 µM | > 100 µM | 99.5 µM | 17.2 µM |
| Cc1ccc2ncnc(N(CC(C)C)CC(C)C)c2c1 | 13.5 µM | 28.2 µM |  |  | 16.4 µM | 40 µM | 10.4 µM | 24.6 µM | 20.1 µM | 43.7 µM |  |  |  |  | 89.3 µM | 20.4 µM |
| CC(=O)c1cc(C(=O)c2ccc3c(c2)Sc2ccccc2N3)c2c(C)cc(C)cn12 | 0.0765 µM | 0.686 µM | 0.315 µM | 0.962 µM | 0.353 µM | > 46.7 µM | 0.264 µM | 8.16 µM | 0.794 µM | > 100 µM | 0.171 µM | 1.5 µM | 2.04 µM | > 100 µM | > 100 µM | 12.8 µM |
| O=[N+]([O-])c1ccccc1N/N=C\c1c[nH]c2ccccc12 |  |  | 16.8 µM | > 61.7 µM | 6.1 µM | > 100 µM | 8.85 µM | > 100 µM | > 58.2 µM | > 100 µM | 4.2 µM | 29.8 µM | 26.4 µM | > 100 µM | > 100 µM | 3.52 µM |
| CC(C)(C)C(=O)OCOP(=O)(OCOC(=O)C(C)(C)C)C1CC(O)N(O)C1=O (stereo unspecified) | 4.36 µM | 47.3 µM | 3.07 µM | 16.4 µM | 4.79 µM | > 100 µM | 4.39 µM | > 100 µM | 20.4 µM | > 100 µM | 19.2 µM | > 100 µM | > 100 µM | > 100 µM | 89.7 µM | 5.9 µM |
| Cc1ccc(C(SCC(N)C(=O)O)(c2ccc(C)cc2)c2ccc(C)cc2)cc1 (stereo unspecified) | 4.04 µM | 14.6 µM | 3.55 µM | > 34.8 µM | 2.26 µM | 12.4 µM | 15 µM | 53.7 µM | 9.2 µM | > 48.6 µM | 6.69 µM | > 38.2 µM | 6.18 µM | 26.7 µM | 21.9 µM | 3.5 µM |
| Cn1cc(C2=C(c3cn(C)c4c([N+](=O)[O-])cccc34)C(=O)NC2=O)c2ccccc21 | > 25 µM | > 25 µM | > 25 µM | > 25 µM | > 25 µM | > 25 µM | > 25 µM | > 25 µM | > 25 µM | > 25 µM | > 25 µM | > 25 µM | > 25 µM | > 25 µM | > 25 µM | > 25 µM |
| Nc1nc(OCc2cc(Br)cs2)c2[nH]cnc2n1 | 11 µM | 48.3 µM | 28.9 µM | > 100 µM | 23.2 µM | > 100 µM | 29.5 µM | > 100 µM | 29.8 µM | > 100 µM | 15.7 µM | 90.2 µM |  |  | 87.5 µM | 17.5 µM |
| Cc1ccccc1-n1ncc(C(=O)c2ccccc2)c1N | > 25 µM | > 25 µM | > 25 µM | > 25 µM | > 25 µM | > 25 µM | > 25 µM | > 25 µM | > 25 µM | > 25 µM | > 9.3 µM | > 25 µM | > 25 µM | > 25 µM | > 25 µM | > 25 µM |
| CCCCCCCCN(CCCCCCCC)CCCCCCNc1cc(OC)cc2cccnc12 | 15.6 µM | 30.5 µM | 3.63 µM | 15.9 µM | 6.81 µM | 20 µM | 10.4 µM | 23.4 µM | 15.3 µM | 29.6 µM | 15.3 µM | 29 µM | 2.2 µM | 5.62 µM | 27.5 µM | 12.1 µM |
| CS(=O)(=O)Nc1ccc(-c2cc(-c3ccccc3)cc(C(N)=O)c2N)cc1 | > 20.5 µM | > 25 µM | > 25 µM | > 25 µM | 20.5 µM | > 25 µM | > 25 µM | > 25 µM | > 25 µM | > 25 µM | 8.89 µM | > 25 µM | > 25 µM | > 25 µM | > 25 µM | > 21.5 µM |
| C=C(C)[C@@H]1CC[C@]2(C(=O)O)CC[C@]3(C)[C@H](CC[C@@H]4[C@@]5(C)C[C@@H](CC#Cc6ccc(C(F)(F)F)cc6)[C@H](O)C(C)(C)[C@@H]5CC[C@]43C)[C@@H]12 | 3.16 µM | > 100 µM | 3.01 µM | > 100 µM | 2.78 µM | > 100 µM | 47.3 µM | > 100 µM |  |  | 1.73 µM | 5.14 µM |  |  | > 100 µM | 4.75 µM |
| COc1cc(OC)c(/C=C\c2ccnc3ccccc23)c(OC)c1 |  | 9.87 µM |  | 11.8 µM |  | 16.5 µM |  | 10.2 µM |  | 19.3 µM |  |  |  | 17.8 µM | 15.6 µM |  |
| O=C1Nc2c(C(F)(F)F)cccc2[C@@]1(c1ccc(O)cc1)c1ccc(OC(F)(F)F)cc1 | < 0.0148 µM | 0.0337 µM | 0.0177 µM | 0.0435 µM | < 0.0143 µM | 3.28 µM | < 0.01 µM | < 0.0105 µM | 0.0333 µM | 16 µM | < 0.01 µM | < 0.0147 µM | 0.938 µM | 20.1 µM |  |  |
| O=C(/C(=C\c1ccc([N+](=O)[O-])cc1)S(=O)Cc1ccc(F)cc1)c1ccc(F)cc1 (stereo unspecified) | 6.19 µM | 18.6 µM |  |  | 2.22 µM | 5.46 µM | 2.43 µM | 6.98 µM | 1.83 µM | 3.67 µM | 3.28 µM | 15.3 µM | 1.79 µM | 3.73 µM | 6.57 µM | 2.08 µM |
| Clc1ccc2c(c1)N(c1ncnc3ccc(-c4cnc5[nH]ccc5c4)cc13)CC2 |  |  | 1.03 µM | 2.66 µM | 1.24 µM | 18.6 µM | 1.99 µM | 69 µM | 0.898 µM | 22 µM | 0.776 µM | 21.1 µM | 14.8 µM | 63.2 µM | 6.48 µM | 0.501 µM |
| O=C1NC(=O)C(=C/C=C/c2ccccc2)C(=O)N1 | 20 µM | 34.6 µM |  |  | 1.74 µM | 3.26 µM | 3.78 µM | 16.7 µM | 5.33 µM | 23 µM | 6 µM | 19.4 µM | 2.24 µM | 7.34 µM | 53 µM | 11.6 µM |
| Cc1ccc(-c2cc3c(SCC(=O)Nc4cc(C(F)(F)F)ccc4Cl)nccn3n2)cc1 | > 100 µM | > 100 µM |  |  | > 100 µM | > 100 µM | > 100 µM | > 100 µM | > 100 µM | > 100 µM | 23.5 µM | > 100 µM |  |  | > 100 µM | 23.6 µM |
| C/C(=C\CCc1ccoc1)CC/C=C(\C)CCCN1CCOCC1 | 4.48 µM | 19.7 µM |  |  | 4.11 µM | 16.1 µM | 12.3 µM | 27.5 µM | 7.17 µM | 21.3 µM | 3.15 µM | 16.3 µM | 9.17 µM | 21.2 µM | 13.1 µM | 3.62 µM |
| Oc1ccc(O)c(-c2cn3ccsc3n2)c1 | 47 µM | 84.5 µM |  |  | 12.5 µM | 27.7 µM | 12.9 µM | 25.5 µM | 12 µM | 26.5 µM |  |  | 24.3 µM | 50.3 µM | 40.6 µM | 19.7 µM |
| NC(N)=N/N=C/c1c(-c2cc(Cl)sc2Cl)nc2sccn12 | 1.54 µM | 10.2 µM |  |  | 1.04 µM | 2.75 µM | 7.71 µM | 15.4 µM | 0.956 µM | 2.05 µM |  |  | 8.6 µM | 17.6 µM |  |  |
